As usually defined, the pEC50 is −log10 of the EC50, conventionally taken in molar units.

pEC50: −log10 of the molar value.

Assay [1] deals with Hepatitis C virus. As to the kind of experiment: Antiviral activity against HCV by HCVSPF-CY1B assay. It counts as functional, organism-based, Hepacivirus hominis.
For assay [2], the system named is Hepatitis C virus. In words: Antiviral activity against HCV assessed as inhibition of viral RNA replication by cell based luciferase reporter gene assay. It counts as functional, organism-based, Hepacivirus hominis. In general terms: A reporter such as luciferase makes a cellular process visible.

Consider `CCOc1cc(O[C@@H]2C[C@H]3C(=O)N[C@]4(C(=O)NS(=O)(=O)C5CC5)C[C@H]4/C=C/CC[C@@H]4CC4[C@H](NC(=O)c4ccn(C)n4)C(=O)N3C2)ccn1` (some centres not stated), for which, in the assay with Hepatitis C virus [1], the pEC50 is 7.47.
In the case of `O=C(N[C@H]1CCCCC/C=C/[C@@H]2C[C@@]2(C(=O)NS(=O)(=O)C2CC2)NC(=O)[C@@H]2C[C@@H](Oc3ccncc3)CN2C1=O)OCCF`, in the assay with Hepatitis C virus [2], the pEC50 was 6.54.

The values above are taken from ChEMBL document CHEMBL2150972, “Hepatitis C virus protease inhibitors: patent highlight” (ACS Med Chem Lett, 2012).
